Test results: paper PMC4258814, “Differences between murine arylamine N-acetyltransferase type 1 and human arylamine N-acetyltransferase type 2 defined by substrate specificity and inhibitor binding” (BMC Pharmacology & Toxicology, 2014)
Numbering of substitutions follows the chain as printed.

Experiments:
(MESAU)NAT2*1 = tested on: (MESAU)NAT2*1; set-up: method as in PMID 15627487, PMID 18280460; settings: substrate 500 μM, relative to substrate with highest specific activity (100%), mean of 3 ± SD, ref [8], [22]; cited from earlier work
(MOUSE)NAT2_R127L = target: T1, (MOUSE)NAT2_R127L (Mus musculus, UniProt P50295, R127L); test: Substrate specific N-acetylation profile; type: biochemical; settings: for % specific activity values: (MOUSE)NAT2 R127L, substrate 500 μM, relative to substrate with highest specific activity (100%), mean of 3 ± SD
T1 construct: made in house
T1 sequence (P50295 1-290 R127L): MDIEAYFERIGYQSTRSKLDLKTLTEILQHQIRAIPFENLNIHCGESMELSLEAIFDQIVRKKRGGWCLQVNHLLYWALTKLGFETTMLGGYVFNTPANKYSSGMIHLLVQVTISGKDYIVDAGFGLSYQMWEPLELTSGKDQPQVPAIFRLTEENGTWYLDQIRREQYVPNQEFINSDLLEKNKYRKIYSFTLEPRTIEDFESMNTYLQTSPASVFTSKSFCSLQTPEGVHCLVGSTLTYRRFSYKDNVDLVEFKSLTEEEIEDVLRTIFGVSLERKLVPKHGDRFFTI

(MOUSE)NAT2*1 = target: T2, (MOUSE)NAT2*1 (Mus musculus, UniProt P50295); test: Substrate specific N-acetylation profile; type: biochemical; settings: for % specific activity values: substrate 500 μM, relative to substrate with highest specific activity (100%), mean of 3 ± SD
T2 construct: made in house
T2 sequence (P50295 1-290): T1 sequence (P50295 1-290 R127L) with L127R

(HUMAN)NAT1*4 = tested on: (HUMAN)NAT1*4; set-up: method as in PMID 15627487, PMID 18280460; settings: substrate 500 μM, relative to substrate with highest specific activity (100%), mean of 3 ± SD, ref [8], [22]; cited from earlier work
[1] = ref [56]–[61], cited from earlier work; for pKaH of acetyl acceptor amine: as summarised in text from Table S1
(MOUSE)NAT2_F125S = target: T3, (MOUSE)NAT2_F125S (Mus musculus, UniProt P50295, F125S); test: Substrate specific N-acetylation profile; type: biochemical; settings: for % specific activity values: (MOUSE)NAT2 F125S, substrate 500 μM, relative to substrate with highest specific activity (100%), mean of 3 ± SD
T3 construct: His tag (only implied by Ni-NTA purification) (cleaved yes); made in house; host or cells: E. coli Rosetta(DE3)pLysS
T3 sequence (P50295 1-290 F125S): T1 sequence (P50295 1-290 R127L) with F125S, L127R

(MOUSE)NAT2_R127G = target: T4, (MOUSE)NAT2_R127G (Mus musculus, UniProt P50295, R127G); test: Substrate specific N-acetylation profile; type: biochemical; settings: (MOUSE)NAT2 R127G; substrate 500 μM; relative to substrate with highest specific activity (100%); mean of 3 ± SD
T4 construct: made in house
T4 sequence (P50295 1-290 R127G): T1 sequence (P50295 1-290 R127L) with L127G

(MOUSE)NAT1*1 = target: T5, (MOUSE)NAT1*1 (Mus musculus, UniProt P50294); test: Substrate specific N-acetylation profile; type: biochemical; settings: substrate 500 μM, relative to substrate with highest specific activity (100%), mean of 3 ± SD
T5 construct: The open reading frame of (MOUSE)Nat1*1 [32] was subcloned; hexa-His (N, cleaved yes); made in house; host or cells: Escherichia coli BL21(DE3)CodonPlus-RIL
T5 sequence (P50294 1-290): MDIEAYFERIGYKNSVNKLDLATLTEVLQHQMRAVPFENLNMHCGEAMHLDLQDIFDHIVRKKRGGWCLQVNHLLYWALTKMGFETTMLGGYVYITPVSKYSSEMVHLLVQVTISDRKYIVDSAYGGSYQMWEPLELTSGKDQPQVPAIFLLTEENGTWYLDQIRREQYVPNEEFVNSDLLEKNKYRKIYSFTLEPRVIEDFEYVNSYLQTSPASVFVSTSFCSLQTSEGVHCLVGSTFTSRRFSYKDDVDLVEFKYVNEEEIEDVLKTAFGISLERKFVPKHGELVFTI

(HUMAN)NAT2*4 = target: T6, (HUMAN)NAT2*4 (Homo sapiens, UniProt P11245); set-up: method as in PMID 15627487, PMID 18280460; settings: substrate 500 μM, relative to substrate with highest specific activity (100%), mean of 3 ± SD, ref [8], [22]; cited from earlier work
T6 construct: made in house
T6 sequence (P11245 1-290): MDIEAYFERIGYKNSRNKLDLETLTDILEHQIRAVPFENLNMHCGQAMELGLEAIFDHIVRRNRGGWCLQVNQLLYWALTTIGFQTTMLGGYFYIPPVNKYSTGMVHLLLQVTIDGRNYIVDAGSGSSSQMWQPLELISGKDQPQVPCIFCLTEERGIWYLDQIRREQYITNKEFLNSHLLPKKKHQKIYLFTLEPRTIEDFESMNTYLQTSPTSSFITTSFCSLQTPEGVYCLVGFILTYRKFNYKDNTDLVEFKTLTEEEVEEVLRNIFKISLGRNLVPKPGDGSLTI

For `Nc1ccc(C(=O)O)cc1` [4ABA, 4-aminobenzoic acid], the “% specific activity values” ((MESAU)NAT2*1) is given as 100 ± 6%, the “% specific activity values” ((MOUSE)NAT2_R127L) is given as 8 ± 1% and the Maximal specific activity ((MOUSE)NAT2*1; best substrate, 500 μM) is given as 196 µM/s/mg. For the same compound, the “% specific activity values” ((MOUSE)NAT2*1) was 100 ± 2%, the “% specific activity values” ((HUMAN)NAT1*4) was 100 ± 2% and the “pKaH of acetyl acceptor amine” value [1] was less than 3. The “pKa(H) (COOH)” value [1] was 4.9, the “pKa(H) (NH3^+)” value [1] was 2.4 and the “% specific activity values” ((MOUSE)NAT2_F125S) was 70 ± 2%. The “% specific activity values” ((MOUSE)NAT2_R127G) was 8 ± 1%, the “% specific activity values” ((MOUSE)NAT1*1) was 48 ± 6% and the “% specific activity values” ((HUMAN)NAT2*4) was 6 ± 1%.
For `Nc1ccc(C(=O)N[C@@H](CCC(=O)O)C(=O)O)cc1` [4ABglu, 4-aminobenzoyl glutamate], the “% specific activity values” ((MESAU)NAT2*1) is given as 57 ± 3%, the “% specific activity values” ((MOUSE)NAT2_R127L) is given as 8 ± 1% and the “% specific activity values” ((MOUSE)NAT2*1) is given as 87 ± 1%. For the same compound, the “% specific activity values” ((HUMAN)NAT1*4) was 20 ± 1%, the “pKaH of acetyl acceptor amine” value [1] was less than 3 and the “pKa(H) (NH3^+)” value [1] was 2.7. The “pKa(H) (α-COOH)” value [1] was 3.6, the “pKa(H) (γ-COOH)” value [1] was 4.7 and the “% specific activity values” ((MOUSE)NAT2_F125S) was 19 ± 1%. The “% specific activity values” ((MOUSE)NAT2_R127G) was 9 ± 1%, the “% specific activity values” ((MOUSE)NAT1*1) was 8 ± 7% and the “% specific activity values” ((HUMAN)NAT2*4) was 3 ± 1%.
In the case of `Nc1ccc(C(=O)O)c(O)c1` [4AS, 4-aminosalicylate], the “% specific activity values” ((MESAU)NAT2*1) is listed as 74 ± 3%, the “% specific activity values” ((MOUSE)NAT2_R127L) is listed as 13 ± 1% and the “% specific activity values” ((MOUSE)NAT2*1) is listed as 55 ± 1%. For the same compound, the “% specific activity values” ((HUMAN)NAT1*4) was 67 ± 2%, the “pKaH of acetyl acceptor amine” value [1] was less than 3 and the “pKa(H) (COOH)” value [1] was 6.0. The “pKa(H) (NH3^+)” value [1] was 2.3, the “pKa(H) (OH)” value [1] was 13.2 and the “% specific activity values” ((MOUSE)NAT2_F125S) was 75 ± 3%. The “% specific activity values” ((MOUSE)NAT2_R127G) was 27 ± 1%, the “% specific activity values” ((MOUSE)NAT1*1) was 88 ± 6% and the “% specific activity values” ((HUMAN)NAT2*4) was 7 ± 1%.
For `COc1ccc(N)cc1OC` [4AV, 4-aminoveratrole], the “% specific activity values” ((MESAU)NAT2*1) is given as 32 ± 1%, the “% specific activity values” ((MOUSE)NAT2_R127L) is given as 100 ± 10% and the Maximal specific activity ((MOUSE)NAT2_R127L; (MOUSE)NAT2_R127L, best substrate, 500 μM) is given as 82.5 µM/s/mg. For the same compound, the “% specific activity values” ((MOUSE)NAT2*1) was 90 ± 1%, the “% specific activity values” ((HUMAN)NAT1*4) was 25 ± 2% and the “pKa(H) (NH3^+)” value [1] was 4.7 (NH3^+). For the same compound, the “% specific activity values” ((MOUSE)NAT2_F125S) was 90 ± 1%, the “% specific activity values” ((MOUSE)NAT2_R127G) was 66 ± 3% and the “% specific activity values” ((MOUSE)NAT1*1) was 28 ± 6%. The “% specific activity values” ((HUMAN)NAT2*4) was 57 ± 3%.
For `Nc1ccc(Br)cc1` [4BA, 4-bromoaniline], the “% specific activity values” ((MESAU)NAT2*1) is listed as 72 ± 1%, the “% specific activity values” ((MOUSE)NAT2_R127L) is listed as 81 ± 11% and the “% specific activity values” ((MOUSE)NAT2*1) is listed as 52 ± 2%. The “% specific activity values” ((HUMAN)NAT1*4) was 50 ± 1%, the “pKa(H) (NH3^+)” value [1] was 3.4 (NH3^+) and the “% specific activity values” ((MOUSE)NAT2_F125S) was 47 ± 2%. The “% specific activity values” ((MOUSE)NAT2_R127G) was 70 ± 1%, the “% specific activity values” ((MOUSE)NAT1*1) was 28 ± 6% and the “% specific activity values” ((HUMAN)NAT2*4) was 72 ± 1%.
For `Nc1ccc(Cl)cc1` [4CA, 4-chloroaniline], the “% specific activity values” ((MESAU)NAT2*1) is given as 61 ± 2%, the “% specific activity values” ((MOUSE)NAT2_R127L) is given as 70 ± 1% and the “% specific activity values” ((MOUSE)NAT2*1) is given as 46 ± 4%. For the same compound, the “% specific activity values” ((HUMAN)NAT1*4) was 36 ± 2%, the “pKa(H) (NH3^+)” value [1] was 3.8 (NH3^+) and the “% specific activity values” ((MOUSE)NAT2_F125S) was 56 ± 2%. For the same compound, the “% specific activity values” ((MOUSE)NAT2_R127G) was 54 ± 3%, the “% specific activity values” ((MOUSE)NAT1*1) was 18 ± 3% and the “% specific activity values” ((HUMAN)NAT2*4) was 71 ± 3%.
For `Nc1ccc(I)cc1` [4IA, 4-iodoaniline], the “% specific activity values” ((MESAU)NAT2*1) is given as 81 ± 1%, the “% specific activity values” ((MOUSE)NAT2_R127L) is given as 74 ± 8% and the “% specific activity values” ((MOUSE)NAT2*1) is given as 72 ± 3%. For the same compound, the “% specific activity values” ((HUMAN)NAT1*4) was 63 ± 1%, the “pKa(H) (NH3^+)” value [1] was 3.8 (NH3^+) and the “% specific activity values” ((MOUSE)NAT2_F125S) was 69 ± 2%. The “% specific activity values” ((MOUSE)NAT2_R127G) was 97 ± 1%, the “% specific activity values” ((MOUSE)NAT1*1) was 28 ± 3% and the “% specific activity values” ((HUMAN)NAT2*4) was 65 ± 2%.
For `Nc1ccc(O)c(C(=O)O)c1` [5AS, 5-aminosalicylate], the “% specific activity values” ((MESAU)NAT2*1) is given as 30 ± 1%, the “% specific activity values” ((MOUSE)NAT2_R127L) is given as 65 ± 9% and the “% specific activity values” ((MOUSE)NAT2*1) is given as 37 ± 1%. The “% specific activity values” ((HUMAN)NAT1*4) was 64 ± 3%, the “% specific activity values” ((MOUSE)NAT2_F125S) was 74 ± 1% and the “% specific activity values” ((MOUSE)NAT2_R127G) was 94 ± 1%. For the same compound, the “% specific activity values” ((MOUSE)NAT1*1) was 76 ± 6% and the “% specific activity values” ((HUMAN)NAT2*4) was 64 ± 2%.
For `COc1ccc(N)cc1` [ANS, 4-methoxyaniline], the “% specific activity values” ((MESAU)NAT2*1) is listed as 89 ± 1%, the “% specific activity values” ((MOUSE)NAT2_R127L) is listed as 77 ± 10% and the “% specific activity values” ((MOUSE)NAT2*1) is listed as 88 ± 6%. For the same compound, the “% specific activity values” ((HUMAN)NAT1*4) was 56 ± 2%, the “pKa(H) (NH3^+)” value [1] was 5.2 (NH3^+) and the “% specific activity values” ((MOUSE)NAT2_F125S) was 100 ± 3%. The Maximal specific activity ((MOUSE)NAT2_F125S; (MOUSE)NAT2_F125S, best substrate, 500 μM) was 25 µM/s/mg, the “% specific activity values” ((MOUSE)NAT2_R127G) was 97 ± 4% and the “% specific activity values” ((MOUSE)NAT1*1) was 48 ± 1%. The “% specific activity values” ((HUMAN)NAT2*4) was 9 ± 2%.
In the case of `NNc1nncc2ccccc12` [HDZ, hydralazine], the “% specific activity values” ((MESAU)NAT2*1) is listed as 3 ± 1%, the “% specific activity values” ((MOUSE)NAT2_R127L) is listed as 95 ± 1% and the “% specific activity values” ((MOUSE)NAT2*1) is listed as 8 ± 2%. For the same compound, the “% specific activity values” ((HUMAN)NAT1*4) was 2 ± 1%, the “% specific activity values” ((MOUSE)NAT2_F125S) was 19 ± 1% and the “% specific activity values” ((MOUSE)NAT2_R127G) was 100 ± 2%. The “% specific activity values” ((MOUSE)NAT1*1) was 68 ± 6% and the “% specific activity values” ((HUMAN)NAT2*4) was 100 ± 1%.
